Measurements reported in PMC6398866 (PLoS ONE, 2019).

How the values were obtained:
rat aortic rings = assay: Isometric tension measurement, U46619-precontracted aortic rings
Description: A vasoconstriction-relaxation study was performed as described previously. Male Sprague-Dawley rats were purchased from Orient Bio (Gyeonggi-do, South Korea). Briefly, the thoracic aortas of the rats were excised and immersed in ice-cold, modified Krebs solution. The aortas were cleaned of all connective tissue, soaked in Krebs-bicarbonate solution, and cut into four ring segments (3.5 mm long). Each aortic ring was suspended in a water-jacketed organ bath (6 mL) maintained at 37°C and aerated with a mixture of 95% O2 and 5% CO2. Each ring was connected to an isometric force transducer (Danish Myo Technology, Skejbyparken, Aarhus N, Denmark). The rings were stretched to an optimal resting tension of 1.0 or 2.0 g, which was maintained throughout the experiment. Each ring was equilibrated in the organ bath solution for 90 min before the contractile responses were measured after the addition of 50 mM KCl.

[1] = test system: Ang II-induced hypertensive mice; details: cited from earlier work
[2] = test system: Ang II-induced hypertensive mice; assay: Systolic blood pressure (tail-cuff) in Ang II-induced hypertensive mice; assay type: in vivo; details: Ang II-infused mice, 3 mg·kg^-1·day^-1 i.p. day 8 to 14, vs Ang II group
Text: All animal experiments were approved by the Animal Experiment Committee of the Chonnam National University Medical School (CNU IACUC-H-2017-70) and carried out in accordance with the Guide for the Care and Use of Laboratory Animals (US National Institutes of Health Publication, 8th edition, 2011). CD-1 male mice (8-week-old) were purchased from OrientBio Company (Gyeonggi, South Korea). Alzet mini-osmotic pumps (model 1002) were purchased from Durect Corporation (Cupertino, CA, USA).

AT1 mRNA = assay: qRT-PCR of aortic tissue, Ang II mice; assay type: in vivo; details: Ang II-infused mice, 3 mg·kg^-1·day^-1 i.p. day 8 to 14, vs Ang II group
ANP mRNA = assay: qRT-PCR of heart tissue, Ang II mice; assay type: in vivo; details: Ang II-infused mice, 3 mg·kg^-1·day^-1 i.p. day 8 to 14, vs Ang II group
BNP mRNA = assay: qRT-PCR of heart tissue, Ang II mice; assay type: in vivo; details: Ang II-infused mice, 3 mg·kg^-1·day^-1 i.p. day 8 to 14, vs Ang II group
skeletal α-actin mRNA = assay: qRT-PCR of heart tissue, Ang II mice; assay type: in vivo; details: Ang II-infused mice, 3 mg·kg^-1·day^-1 i.p. day 8 to 14, vs Ang II group
[3] = test system: Ang II-induced hypertensive mice; assay: Aortic wall thickness (H&E staining) in Ang II mice; assay type: in vivo; details: Ang II-infused mice, 3 mg·kg^-1·day^-1 i.p. day 8 to 14, H&E, vs Ang II group
cyclin D1 mRNA = assay: qRT-PCR of aortic tissue, Ang II mice; assay type: in vivo; details: Ang II-infused mice, 3 mg·kg^-1·day^-1 i.p. day 8 to 14, vs Ang II group
cyclin E1 mRNA = assay: qRT-PCR of aortic tissue, Ang II mice; assay type: in vivo; details: Ang II-infused mice, 3 mg·kg^-1·day^-1 i.p. day 8 to 14, vs Ang II group
E2F3 mRNA = assay: qRT-PCR of aortic tissue, Ang II mice; assay type: in vivo; details: Ang II-infused mice, 3 mg·kg^-1·day^-1 i.p. day 8 to 14, vs Ang II group
GATA6 mRNA = assay: qRT-PCR of aortic tissue, Ang II mice; assay type: in vivo; details: Ang II-infused mice, 3 mg·kg^-1·day^-1 i.p. day 8 to 14, vs Ang II group
[4] = test system: vascular smooth muscle cells (VSMCs); assay: NO production in VSMC medium (Griess assay); assay type: cell-based; details: MS-275 3 and 10 μM, Ang II 1 μM, 24 h, Griess reagent
Description: VSMCs were seeded in 12 well plates.

arginase 1 mRNA = assay: qRT-PCR of aortic tissue, Ang II mice; assay type: in vivo; details: Ang II-infused mice, 3 mg·kg^-1·day^-1 i.p. day 8 to 14, vs Ang II group
arginase 2 mRNA = assay: qRT-PCR of aortic tissue, Ang II mice; assay type: in vivo; details: Ang II-infused mice, 3 mg·kg^-1·day^-1 i.p. day 8 to 14, vs Ang II group
GTPCH mRNA = assay: qRT-PCR of aortic tissue, Ang II mice; assay type: in vivo; details: Ang II-infused mice, 3 mg·kg^-1·day^-1 i.p. day 8 to 14, vs Ang II group
Nox1 mRNA = assay: qRT-PCR of aortic tissue, Ang II mice; assay type: in vivo; details: Ang II-infused mice, 3 mg·kg^-1·day^-1 i.p. day 8 to 14, vs Ang II group
Nox2 mRNA = assay: qRT-PCR of aortic tissue, Ang II mice; assay type: in vivo; details: Ang II-infused mice, 3 mg·kg^-1·day^-1 i.p. day 8 to 14, vs Ang II group
p47phox mRNA = assay: qRT-PCR of aortic tissue, Ang II mice; assay type: in vivo; details: Ang II-infused mice, 3 mg·kg^-1·day^-1 i.p. day 8 to 14, vs Ang II group
Cox-2 mRNA = assay: qRT-PCR of aortic tissue, Ang II mice; assay type: in vivo; details: Ang II-infused mice, 3 mg·kg^-1·day^-1 i.p. day 8 to 14, vs Ang II group
SOD3 mRNA = assay: qRT-PCR of aortic tissue, Ang II mice; assay type: in vivo; details: Ang II-infused mice, 3 mg·kg^-1·day^-1 i.p. day 8 to 14, vs Ang II group
iNOS mRNA = assay: qRT-PCR of aortic tissue, Ang II mice; assay type: in vivo; details: Ang II-infused mice, 3 mg·kg^-1·day^-1 i.p. day 8 to 14, vs Ang II group
TNF-α mRNA = assay: qRT-PCR of aortic tissue, Ang II mice; assay type: in vivo; details: Ang II-infused mice, 3 mg·kg^-1·day^-1 i.p. day 8 to 14, vs Ang II group
IL-1β mRNA = assay: qRT-PCR of aortic tissue, Ang II mice; assay type: in vivo; details: Ang II-infused mice, 3 mg·kg^-1·day^-1 i.p. day 8 to 14, vs Ang II group
MCP-1 mRNA = assay: qRT-PCR of aortic tissue, Ang II mice; assay type: in vivo; details: Ang II-infused mice, 3 mg·kg^-1·day^-1 i.p. day 8 to 14, vs Ang II group
VCAM-1 mRNA = assay: qRT-PCR of aortic tissue, Ang II mice; assay type: in vivo; details: Ang II-infused mice, 3 mg·kg^-1·day^-1 i.p. day 8 to 14, vs Ang II group
ICAM-1 mRNA = assay: qRT-PCR of aortic tissue, Ang II mice; assay type: in vivo; details: Ang II-infused mice, 3 mg·kg^-1·day^-1 i.p. day 8 to 14, vs Ang II group
CD68+ macrophages = assay: CD68 immunohistochemistry of aorta (macrophage infiltration), Ang II mice; assay type: in vivo; details: Ang II-infused mice, 3 mg·kg^-1·day^-1 i.p. day 8 to 14, immunohistochemistry
Description: For immunohistochemistry, staining was performed in aortic tissues using a primary CD68 antibody. Before incubation with primary antibodies, aorta sections received antigen retrieval using a citrate buffer. Negative controls were performed without a primary antibody.

[5] = test system: model of Cushing's syndrome; set-up: method as in PMID 28928236; details: model of Cushing's syndrome ref 23; cited from earlier work
collagen type III mRNA = assay: qRT-PCR, Ang II mice; details: Ang II-infused mice, 3 mg·kg^-1·day^-1 i.p. day 8 to 14, S1 Fig
Description: (§1) Mice were anesthetized with a ketamine (120 mg/kg), and xylazine (6.2 mg/kg) mixture and 1-cm incisions were created on the backs of the mice. Ang II (1.3 mg·kg^-1·day^-1) was subcutaneously infused into the mice using an Alzet osmotic pump as described previously [26]. […] Ang II was dissolved in a 0.9% sodium chloride (NaCl) solution. The sham control mice received the vehicle (dimethyl sulfoxide [DMSO]). […] Mice were sacrificed at the end of the study by CO2 inhalation.
(§2) Total RNA from the aorta tissue and cells was isolated with TriZol reagent (Invitrogen Life Technologies, Waltham, MA, USA), and 1 μg RNA was used for the reverse transcription (RT) reaction using TOPscript RT DryMIX (Enzynomics, Daejeon, South Korea). The mRNA amounts were determined using the SYBR Green PCR kit (Enzynomics, Daejeon, South Korea). All the data were normalized to the glyceraldehyde 3-phosphate dehydrogenase (GAPDH) expression using the 2-^ΔΔct method.

ACE1 mRNA = assay: qRT-PCR of aortic tissue, Ang II mice; details: Ang II-infused mice, 3 mg·kg^-1·day^-1 i.p. day 8 to 14
Description: as §1, §2

DDAH1 mRNA = assay: qRT-PCR of aortic tissue, Ang II mice; details: Ang II-infused mice, 3 mg·kg^-1·day^-1 i.p. day 8 to 14, vs Ang II group
Description: as §1, §2

[6] = test system: Ang II-induced hypertensive mice; assay: NO levels in serum and aorta of Ang II-infused mice (Griess assay); details: 3 mg·kg^-1·day^-1 i.p.
Description: Mice were anesthetized with a ketamine (120 mg/kg), and xylazine (6.2 mg/kg) mixture and 1-cm incisions were created on the backs of the mice. Ang II (1.3 mg·kg^-1·day^-1) was subcutaneously infused into the mice using an Alzet osmotic pump as described previously [26]. […] Ang II was dissolved in a 0.9% sodium chloride (NaCl) solution. The sham control mice received the vehicle (dimethyl sulfoxide [DMSO]). […] Mice were subjected to blood pressure measurements three times before determination of the systolic blood pressure on day 14 after Ang II infusion. The blood pressure was measured in awake mice using the tail-cuff method (BP-2000, Visitech Systems, Apex, NC, USA).
NO levels in the serum (100 μl) were measured without dilution. Aorta NO levels were determined using 50 μg of protein, which was deproteinized with 5% trichloroacetic acid (TCA).

[7] = test system: Ang II-induced hypertensive mice; assay: Aortic collagen deposition (Masson's trichrome staining) in Ang II mice; details: Ang II-infused mice, 3 mg·kg^-1·day^-1 i.p. day 8 to 14, Masson's trichrome
Description: Mice were anesthetized with a ketamine (120 mg/kg), and xylazine (6.2 mg/kg) mixture and 1-cm incisions were created on the backs of the mice. Ang II (1.3 mg·kg^-1·day^-1) was subcutaneously infused into the mice using an Alzet osmotic pump as described previously [26]. […] Ang II was dissolved in a 0.9% sodium chloride (NaCl) solution. The sham control mice received the vehicle (dimethyl sulfoxide [DMSO]). […] Mice were subjected to blood pressure measurements three times before determination of the systolic blood pressure on day 14 after Ang II infusion. The blood pressure was measured in awake mice using the tail-cuff method (BP-2000, Visitech Systems, Apex, NC, USA). Mice were sacrificed at the end of the study by CO2 inhalation.
Aortic tissues were fixed in 4% paraformaldehyde at 25°C, embedded in paraffin, and cut into 3-μm thick sections. The tissue slides were deparaffinized three times with xylene and hydrated using serially diluted ethanol. After immersing in tap water for 2 min, the slides were stained with Gill’s hematoxylin V for 5 min and then washed with tap water for 5 min and 95% ethanol for 2 min. The slides were stained with Eosin Y for 1 min, dehydrated with ethanol and xylene, and mounted using Canada balsam. The aortic wall thickness was measured using the NIS Elements Software (Nikon, Japan). […]

AT1 = details: through AT1 ref 25; cited from earlier work
[8] = test system: spontaneously hypertensive rats (SHR); set-up: method as in PMID 22389387; details: long-term treatment, SHR ref 22; cited from earlier work
[9] = test system: high-fat diet-induced hypertension; set-up: method as in PMID 28720877; details: by downregulating Ang II and AT1 ref 24; cited from earlier work

SMILES: COC(=O)[C@@H](N)CCCNC(N)=N[N+](=O)[O-] [L-NAME, N^G-nitro-L-arginine methyl ester]
- effect of pretreatment on MS-275-induced vascular relaxation (rat aortic rings; endothelium-intact rat aortic rings, L-NAME 10 or 100 μM for 30 min): reduced

SMILES: Cn1c(/C=C/C(=O)NO)ccc1/C=C/C(=O)c1cccc(F)c1 [MC1568]
- high systolic blood pressure ([1]; Ang II-induced hypertensive mice ref 26): reduces

SMILES: Nc1ccccc1NC(=O)c1ccc(CNC(=O)OCc2cccnc2)cc1 [MS-275]
- systolic blood pressure [2]: significantly reduced
- AT1 mRNA level in aorta (AT1 mRNA): decreased
- ANP mRNA level in heart (ANP mRNA): significantly reduced
- BNP mRNA level in heart (BNP mRNA): significantly reduced
- skeletal a-actin mRNA level in heart (skeletal α-actin mRNA): significantly reduced
- aortic wall thickness [3]: significantly decreased
- cyclin D1 mRNA level in aorta (cyclin D1 mRNA): not significantly decreased
- cyclin E1 mRNA level in aorta (cyclin E1 mRNA): not significantly decreased
- E2F3 mRNA level in aorta (E2F3 mRNA): significantly inhibited
- GATA6 mRNA level in aorta (GATA6 mRNA): significantly suppressed
- vasorelaxation of U46619-precontracted aortic rings (rat aortic rings; endothelium-intact and -denuded rat aortas, U46619 30 nM, MS-275 cumulative 0.003–3 μM): induced vasorelaxation
- concentration at which maximum relaxation was observed (rat aortic rings; rat aortic rings precontracted with U46619 30 nM): 3 µM
- NO level in VSMC medium lowered by Ang II [4]: significantly restored
- arginase 1 mRNA level in aorta (arginase 1 mRNA): not reduced
- arginase 2 mRNA level in aorta (arginase 2 mRNA): not reduced
- GTPCH mRNA level in aorta (GTPCH mRNA): significantly reduced
- Nox1 mRNA level in aorta (Nox1 mRNA): unchanged
- Nox2 mRNA level in aorta (Nox2 mRNA): unchanged
- p47phox mRNA level in aorta (p47phox mRNA): unchanged
- Cox-2 mRNA level in aorta (Cox-2 mRNA): not significantly decreased
- SOD3 mRNA expression in aorta (SOD3 mRNA): did not restore
- iNOS mRNA level in aorta (iNOS mRNA): significantly attenuated
- TNF-α mRNA level in aorta (TNF-α mRNA): significantly attenuated
- IL-1β mRNA level in aorta (IL-1β mRNA): significantly attenuated
- MCP-1 mRNA level in aorta (MCP-1 mRNA): significantly attenuated
- VCAM-1 expression in aorta (VCAM-1 mRNA): significantly inhibited
- ICAM-1 expression in aorta (ICAM-1 mRNA): significantly inhibited
- number of CD68+ macrophages in aorta tissue (CD68+ macrophages): reduced
- hypertension and hyperglycemia [5]: attenuates
- collagen type III mRNA level (collagen type III mRNA): reduced
- ACE1 mRNA level in aorta (ACE1 mRNA): significantly reduced
- DDAH1 mRNA level in aorta (DDAH1 mRNA): suppressed
- NO level in aorta [6]: not induced
- NO level in serum [6]: not induced
- collagen deposition in the adventitia of aortic tissues [7]: attenuated

SMILES: Nc1cc(F)ccc1NC(=O)/C=C/c1cnn(C/C=C/c2ccccc2)c1 [RGFP966]
- systolic blood pressure [2]: significantly reduced
- ANP mRNA level in heart (ANP mRNA): significantly reduced
- BNP mRNA level in heart (BNP mRNA): significantly reduced
- skeletal a-actin mRNA level in heart (skeletal α-actin mRNA): significantly reduced
- aortic wall thickness [3]: significantly decreased
- cyclin D1 mRNA level in aorta (cyclin D1 mRNA): not significantly decreased
- cyclin E1 mRNA level in aorta (cyclin E1 mRNA): not significantly decreased
- E2F3 mRNA level in aorta (E2F3 mRNA): significantly inhibited
- GATA6 mRNA level in aorta (GATA6 mRNA): significantly suppressed
- arginase 1 mRNA level in aorta (arginase 1 mRNA): not reduced
- arginase 2 mRNA level in aorta (arginase 2 mRNA): not reduced
- GTPCH mRNA level in aorta (GTPCH mRNA): significantly reduced
- Nox1 mRNA level in aorta (Nox1 mRNA): unchanged
- Nox2 mRNA level in aorta (Nox2 mRNA): unchanged
- p47phox mRNA level in aorta (p47phox mRNA): unchanged
- Cox-2 mRNA level in aorta (Cox-2 mRNA): not significantly decreased
- SOD3 mRNA expression in aorta (SOD3 mRNA): did not restore
- iNOS mRNA level in aorta (iNOS mRNA): not
- MCP-1 mRNA level in aorta (MCP-1 mRNA): not
- VCAM-1 expression in aorta (VCAM-1 mRNA): not
- number of CD68+ macrophages in aorta tissue (CD68+ macrophages): reduced

SMILES: CC(/C=C/C(=O)NO)=C\[C@@H](C)C(=O)c1ccc(N(C)C)cc1 [TSA, trichostatin A]
- hypertension and vasoconstriction (AT1): inhibits

SMILES: CCCC(CCC)C(=O)O [VPA, valproic acid]
- cardiac hypertrophy, inflammation, and hypertensive responses [8]: reduces
- high-fat diet-induced hypertension [9]: prevents

SMILES: CN1CCc2c(c3ccccc3n2Cc2ccc(C(=O)NO)cc2)C1 [tubastatin A]
- hypertension ([1]; Ang II-infused mice ref 28): did not reduce
